The values below are quoted from earlier work in patent publication US6814987B2, “Compositions and methods of use for extracts of magnoliaceae plants” (NPI, LLC., priority 2000, dated 2004).

Read-outs that look alike come from different tables or passages of the source.

`C=CCc1ccc(O)c(-c2cc(CC=C)ccc2O)c1` [magnolol]: the observed effects result in the data set with mice (63 mg/kg intraperitoneally) was “hypomotility, ptosis, and sedation”. In the data set on mice (125 mg/kg), the “duration of effects after injection” value was 2 h; the observed effects entry is “sedation, ataxia, and prominent muscle relaxation”. In the data set on mice (250 mg/kg), the “duration of muscle relaxation” value is listed as “over 3 hr”, the time to ataxia was no more than 10 min and the “time to loss of righting reflex” value is 40 min.

In the case of `C=CCc1ccc(O)c(-c2ccc(O)c(CC=C)c2)c1` [honokiol], the “duration of muscle relaxing effect” value (250 mg/kg) is 3 h. For the same molecule, the observed effect entry (500 mg/kg) is on record as “loss of righting reflex”.
